Test results from article PMC6540222, “Small Molecule Inhibitors of KDM5 Histone Demethylases Increase the Radiosensitivity of Breast Cancer Cells Overexpressing JARID1B” (Molecules, 2019).

Assays:
[1] = test system: MCF-7 cells; experiment: CCK-8 viability assay after X-ray irradiation; format: cell-based, human; conditions: MCF-7 irradiated with 3 Gy, all concentrations tested, compared to DMSO control, CCK-8 48 h post irradiation
Experimental: The cytoxicity assay was performed with Cell Counting Kit-8 (#96992, Sigma-Aldrich) according to the manufacturer’s instructions. 100 µL of MCF-7 T47D or MDA-MB231 cell suspension (5000 cells/well) was dispensed in a 96-well plate. After 24 h, inhibitor or DMSO was added in growth medium and then cells were irradiated. 48 h post irradiation, 10 μL of CCK-8 solution was added to each well of the plate and incubated again for 1 h. Incubate the plate for 1–4 h in the incubator. The absorbance at 450 nm was read using a VICTOR2 1420 reader (Perkin Elmer Wallac, Waltham, MA, USA). The absorbance at 450 nm of each sample, which is proportional to the number of viable cells, was first normalized on the same value of absorbance of blank (a well with only growth medium). The absorbance of each dose of radiation (sham, 0.3, 1 and 3 Gy) was normalized to the corresponding DMSO control and then, for each concentration of inhibitors, these values were normalized to the corresponding sham control.

[2] = test system: H3K4me3 levels in MCF-7 cells; experiment: Western blotting of H3K4me3 levels in bulk chromatin; format: cell-based, human; conditions: MCF-7 bulk chromatin, 1 μM, 10 μM and 30 μM, 24 h, vs DMSO
Experimental: Histone isolation was performed according to acid extraction of histones protocol of Shechter and colleagues. Histone concentration was determined by running 5 μL of samples and known concentrations of commercially available purified calf thymus histones (from Sigma Aldrich Cat. #000000010223565001) on a SDS-PAGE gel. The gel is stained with Coomassie blue G 250 (BIO-RAD Cat. #161-0786) for 1 hour at room temperature and then destained in distilled water. The gel image is acquired with ChemiDoc XRS+ Imaging System (Bio-Rad, Hercules, CA, USA) and the volumes of bands of the samples are compared to standard concentrations of calf thymus histone.
Proteins were resolved on a 12% (histones) or 5% (JARID1B) denaturing polyacrylamide gel, using either 4 μg of histone preparation or 40 μg of cell lysate. After electrophoresis, proteins were transferred on a nitrocellulose membrane (Protran™ […] NC, # 10600002, GE Healthcare (Amersham™), Chicago, IL, USA) via wet transfer method using a Bio-Rad tank. Transfer efficiency was verified via ponceau staining (#P7767, Sigma-Aldrich). Filters were blocked with either milk (#70166, Sigma-Aldrich) or bovine serum albumin (#A3069, Sigma-Aldrich) and then hybridized over night at 4 °C in gentle rotation with the following antibodies: rabbit anti-H3K4me3 (1:1000, #39915, Active Motif, RRID:AB_2687512); rabbit-anti-H3K27me3 (1:1000, #9733, Cell Signaling Technology, RRID:AB_2616029); rabbit-anti- H3K9pan-methylated (1:1000, #4473, RRID:AB_10544693); rabbit-anti-H3 ([…], Cat#1791, ABCAM, RRID:AB_302613); rabbit anti-H2AX (1:1000, Cat#7631, Cell Signaling Technology, RRID:AB_10860771), rabbit anti-Phospho-H2AX (1:1000, Cat#9718, Cell Signaling Technology, RRID:AB_2118009), rabbit anti-JARID1B (1:50, Cell Signaling Technology, Cat#3273 RRID: AB_1264191). Goat-anti-Rabbit Horseradish Peroxidase conjugated (1:10,000, #31460, Thermo Fisher Scientific, Waltham, MA, USA RRID:AB_228341) was used as secondary antibody for 1 hour hybridization at room temperature. Blots were scanned and analyzed with a ChemiDoc XRS+ Imaging System (Bio-Rad). The volumes of each band of protein was acquired using Bio-Rad’s ImageLab software by means of volume tools using global quantification. The signal for each protein was normalized to the housekeeping protein and ratios with average control values were determined. For histones as loading control was used either total histone H3 detected by a specific antibody or histone H1 levels by staining the upper part of the gel properly cut before protein transfer on nitrocellulose membrane.

[3] = molecular target: KDM5D (Homo sapiens, UniProt Q9BY66); experiment: Surface Plasmon Resonance (SPR), immobilized KDM5D; format: binding; conditions: KDM5D immobilized on COOH5 sensorchip, buffer HSP-1%D, analyte 6.25-100 μM
KDM5D, sequence (Q9BY66 whole entry): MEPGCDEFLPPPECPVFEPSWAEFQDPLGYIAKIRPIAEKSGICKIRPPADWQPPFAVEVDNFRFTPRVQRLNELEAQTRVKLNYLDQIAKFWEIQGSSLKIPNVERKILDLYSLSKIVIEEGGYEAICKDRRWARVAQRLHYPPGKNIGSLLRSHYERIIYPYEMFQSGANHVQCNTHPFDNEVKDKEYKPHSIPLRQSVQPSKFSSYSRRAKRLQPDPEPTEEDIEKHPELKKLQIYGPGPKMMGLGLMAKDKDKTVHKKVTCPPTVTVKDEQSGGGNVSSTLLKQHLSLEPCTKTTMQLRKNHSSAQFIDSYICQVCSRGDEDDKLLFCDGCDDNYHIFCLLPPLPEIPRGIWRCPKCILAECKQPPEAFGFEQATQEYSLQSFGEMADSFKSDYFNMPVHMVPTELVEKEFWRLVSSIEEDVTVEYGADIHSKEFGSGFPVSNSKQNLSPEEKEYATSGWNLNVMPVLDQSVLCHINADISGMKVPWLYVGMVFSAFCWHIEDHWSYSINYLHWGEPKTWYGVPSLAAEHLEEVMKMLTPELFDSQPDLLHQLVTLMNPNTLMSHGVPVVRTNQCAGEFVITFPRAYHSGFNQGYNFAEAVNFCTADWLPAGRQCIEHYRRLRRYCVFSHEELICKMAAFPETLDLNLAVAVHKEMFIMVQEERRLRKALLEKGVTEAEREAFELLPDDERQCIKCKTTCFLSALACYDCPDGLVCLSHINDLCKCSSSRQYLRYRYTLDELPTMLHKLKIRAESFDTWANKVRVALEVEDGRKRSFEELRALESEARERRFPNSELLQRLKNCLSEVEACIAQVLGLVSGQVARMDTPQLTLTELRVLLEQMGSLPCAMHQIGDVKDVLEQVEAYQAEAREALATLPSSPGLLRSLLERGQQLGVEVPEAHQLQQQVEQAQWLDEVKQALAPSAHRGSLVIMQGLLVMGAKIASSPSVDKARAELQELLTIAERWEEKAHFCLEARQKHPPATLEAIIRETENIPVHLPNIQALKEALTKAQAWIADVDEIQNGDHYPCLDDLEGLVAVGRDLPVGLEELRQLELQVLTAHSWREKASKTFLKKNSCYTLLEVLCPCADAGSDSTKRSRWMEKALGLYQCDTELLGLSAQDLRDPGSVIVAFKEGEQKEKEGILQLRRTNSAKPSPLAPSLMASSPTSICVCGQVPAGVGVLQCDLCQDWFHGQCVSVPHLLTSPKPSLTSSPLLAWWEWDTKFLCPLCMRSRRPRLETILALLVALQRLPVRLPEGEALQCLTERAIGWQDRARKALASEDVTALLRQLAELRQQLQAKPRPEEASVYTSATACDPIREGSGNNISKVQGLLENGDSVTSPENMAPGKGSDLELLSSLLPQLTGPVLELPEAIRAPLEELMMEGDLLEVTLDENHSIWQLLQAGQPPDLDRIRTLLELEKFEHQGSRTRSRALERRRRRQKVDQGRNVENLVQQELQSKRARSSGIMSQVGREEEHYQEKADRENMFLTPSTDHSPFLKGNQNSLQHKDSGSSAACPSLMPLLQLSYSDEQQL
Experimental: Surface Plasmon Resonance (SPR) experiments were carried out using a SensiQ Pioneer system (ICx Nomadics, Stillwater, OK, USA). Immobilization of ligand (KDM5D) was carried out essentially as in Ilari et al.. The sensor chip (COOH5) was activated chemically by a 100 µL injection of a 1:1 mixture of N-ethyl-N′-(3-([…])carbodiimide (200 mM) and N-hydroxysuccinimide (50 mM) at a flow rate of 5 µL/min. KDM5D was immobilized on activated sensor chips via amine coupling. The immobilization was carried out in 20 mM sodium acetate at pH 4.5; the remaining unreacted groups were blocked by injecting 1 M ethanolamine hydrochloride (100 µL). The amount of immobilized KDM5D was detected by mass concentration-dependent changes in the refractive index on the sensor chip surface and corresponded to about 11,000 resonance units (RU); an empty flow cell was used as a reference. Analytes, i.e., inhibitors RS3152, RS3183, RS3195, RS4995 and RS5033 were dissolved in DMSO at a concentration of 10 mM and diluted in HSP buffer (10 mM Hepes pH 7.4, 150 mM NaCl + 0.005% surfactant P20) to yield 100 μM inhibitor concentration in HSP + 1% DMSO (HSP-1%D). The analytes were automatically diluted in HSP-1%D and injected on the sensorchip for 120 s at a constant flow (30 µL/min); analyte concentrations were: (1) 6.25 μM; (2) 12.5 μM; (3) 25 μM; (4) 50 μM; (5) 100 μM. The increase in RU relative to baseline indicates complex formation; the plateau region represents the steady-state phase of the interaction, whereas the decrease in RU after 120 s represents dissociation of analytes from immobilized KDM5 after injection of buffer HSP-1%D. The sensorgrams were analysed using the SensiQ Qdat 4.0 program and using simple Scatchard plots.

Compound	reduction of viable cells [1]	H3K4me3 levels [2]	Kd [3]	H3K4me3 levels ([2]; listed as RS 5033)
CCOC(=O)c1cccn1C(=O)c1cccc(NS(=O)(=O)c2ccc(OC)cc2)c1 [RS3195]	more limited effect	slight increase	38 ± 2 µM	
CCOC(=O)c1ccccc1C(=O)c1cccc(NS(=O)(=O)c2ccc(OC)cc2)c1 [RS5033]	20–35%	more remarkable and significant increase of H3K4me3	32 ± 2 µM	strong and significant increase
